“Also recorded” adds a separate entry of the source. Like-named read-outs stand apart in the source and are kept apart here.
Assays:
TB14 [1] = biological target: T1, TB14 (UniProt C9ZDC6+P14779); assay: Binding affinities of Trp analogues toward TB14 (spectral shift titration); conditions: for Kd: read-out: TB14 Kd, 1.5 μM enzyme, 25 mM Tris-HCl, pH 8.0; for Interaction with TB14 in spectroscopic analysis (in words): Type I spectral shift
T1 construct: 14-aa linker […]; BM3R, reductase domain of P450BM3 (CYP102A1), fusion partner after the linker; inferred from Ni-NTA purification and the pET28b vector; made in house; host or cells: E. coli BL21 (DE3)-GOLD, pET28b-TxtE-BM3R
Description: (§1) The ferric heme of enzymes was then saturated with carbon monoxide (Airgas) through bubbling and the spectra of the saturated enzyme solutions were recorded. Immediately, sodium dithionite solution (30 μL, 0.5 M) was added to reduce ferric ion, and reduced spectra were taken subsequently. CO reduced difference spectra of all enzymes were created by subtracting the CO binding spectra from the reduced spectra. Data were further analyzed by Excel. […] Not more than 10 μl of substrate stock solutions prepared in the above buffer were added to the sample cuvette with an interval of 0.5 μl, and the spectra were recorded from 300 nm to 500 nm each time. The equal volume of buffer was added to the reference cuvette. The changes in absorbance (AA) were determined by subtracting the absorbance at ˜420 nm from that at ˜390 nm. Data were then fitted to the equation of ΔA=ΔAmax[L]/(Kd+[L]) using GraphPad Prism 4.

TxtE [2] = biological target: T2, TxtE (Streptomyces scabiei, UniProt C9ZDC6); assay: biochemical; type: binding, S. scabies; parameters: inferred from Ni-NTA purification and the pET28b vector; made in house; host or cells: E. coli BL21 (DE3)-GOLD, pET28b; conditions: for Interaction with TxtE in spectroscopic analysis (in words): Type I spectral shift
Description: as §1

TB14 [3] = biological target: T1, TB14; assay: Nitration of Trp and its analogues by TB14 (45 min, HPLC); type: biochemical; conditions: FIG. 8; for Nitration activity of TB14 toward the substrate (in words): 0.5 mM substrate, 45 min
Description: (§2) The reactions were prepared and then incubated at 20° C., 300 rpm for 45 minutes. All experiments were repeated at least three times.
(§3) After centrifugation, 10 μl solutions were analyzed by HPLC. […] All reactions were independently repeated at least three times. […] All experiments were performed at least in triplicate.

TxtE [4] = biological target: T2, TxtE; type: biochemical, S. scabies; parameters: inferred from Ni-NTA purification and the pET28b vector; made in house; conditions: 0.5 mM substrate, 45 min, FIG. 8
Description: as §2, §3

TB14 [5] = biological target: T3, TB14 (UniProt C9ZDC6); assay: Binding affinities of Trp analogues toward TB14 (spectral shift titration); conditions: 1.5 μM enzyme, 25 mM Tris-HCl, pH 8.0
T3 construct: 14-aa linker […]; BM3R, reductase domain of P450BM3 (CYP102A1), fusion partner after the linker; inferred from Ni-NTA purification and the pET28b vector; made in house; host or cells: E. coli BL21 (DE3)-GOLD, pET28b-TxtE-BM3R
Description: as §1

[6] = read-out: TxtE Kd, 1.5 μM enzyme, 25 mM Tris-HCl, pH 8.0

In the case of `NC(Cc1c[nH]c2cccc(F)c12)C(=O)O` (racemic) [Example 4-F-Trp, 4-F-DL-Trp], the Kd (TB14 [1]) is reported as 175 ± 12.9 µM and the Kd (TxtE [2]; [6]) is reported as 189 ± 11.1 µM.
With `Cc1cccc2[nH]cc(CC(N)C(=O)O)c12` (racemic) [Example 4-Me-DL-Trp] the “Interaction with TB14 in spectroscopic analysis (in words)” value (TB14 [1]) was “more tightly than 4-F-DL-Trp”, the “Nitration activity of TB14 toward the substrate (in words)” value (TB14 [3]) was “good activity” and the “Nitration by TB14 favoured over 4-F-DL-Trp” value (TB14 [3]) was “about 8 times”. The “Nitration activity of TxtE toward the substrate (in words)” value (TxtE [4]) was “good activity” and the “Interaction with TxtE in spectroscopic analysis (in words)” value (TxtE [2]) was “more tightly than 4-F-DL-Trp”.
`Cc1cccc2[nH]cc(CC(N)C(=O)O)c12` (racemic) [Example 4-Me-Tr, 4-Me-DL-Tryptophan] gave a Kd (TB14 [5]) of 13.5 ± 0.98 µM and a Kd (TxtE [2]) of 9.58 ± 0.36 µM.
In the case of `Cc1ccc2[nH]cc(CC(N)C(=O)O)c2c1` (racemic) [Example 5-Me-Trp, 5-Me-DL-Trp], the Kd (TB14 [5]) is reported as 29.9 ± 1.03 µM, the “Nitration activity of TB14 toward the substrate (in words)” value (TB14 [3]) is reported as “good activity” and the “Nitration activity of TxtE toward the substrate (in words)” value (TxtE [4]) is reported as “good activity”. The Kd (TxtE [2]) was 34.7 ± 0.99 µM.
Molecule `COc1ccc2[nH]cc(CC(N)C(=O)O)c2c1` (racemic) [Example 5-MeO-Trp, 5-MeO-DL-Trp] has a Kd (TB14 [5]) of 25.8 ± 1.84 µM and a Kd (TxtE [2]) of 29.1 ± 1.16 µM.
`N[C@@H](Cc1c[nH]c2cc(F)ccc12)C(=O)O` (racemic) [Example 6-F-Trp, 6-F-DL-Trp] was tested, and the Kd (TB14 [1]) was 65.3 ± 4.49 µM, the “Nitration activity of TB14 toward the substrate (in words)” value (TB14 [3]) was “good activity” and the “Nitration activity of TxtE toward the substrate (in words)” value (TxtE [4]) was “good activity”. The Kd (TxtE [2]; [6]) was 73.4 ± 6.06 µM.
For `Cc1cccc2c(CC(N)C(=O)O)c[nH]c12` (racemic) [Example 7-Me-Trp, 7-Me-DL-Trp], the Kd (TB14 [5]) was 10.6 ± 0.75 µM and the Kd (TxtE [2]) was 12.9 ± 0.99 µM.
Work on `CC(N)(Cc1c[nH]c2ccccc12)C(=O)O` (racemic) [α-Me-Trp, α-Me-DL-Trp] yielded a Kd (TB14 [5]) of 94.7 ± 8.52 µM and a Kd (TxtE [2]) of 100 ± 4.3 µM.
For `O=C(O)C1Cc2c([nH]c3ccccc23)CN1` (stereo not drawn) [2,3,4,9-Tetrahydro-1H-β-carboline-3-carboxynate], the Kd (TB14 [5]) was 731 ± 86 µM and the Kd (TxtE [2]) was 579 ± 44.4 µM.
In the case of `O=C(O)Cc1c[nH]c2ccccc12` [3-Indoleacetic acid], the Kd (TxtE [2]) is reported as > 17000 µM.
`N[C@@H](Cc1c[nH]c2ncccc12)C(=O)O` [7-Azatryptophan] showed a Kd (TB14 [5]) of 25.5 ± 0.58 µM and a Kd (TxtE [2]; [6]) of 16.8 ± 0.28 µM.
In the case of `N[C@H](Cc1c[nH]c2ccccc12)C(=O)O` [D-Trp], the Kd (TB14 [5]) is reported as 470 ± 25.3 µM and the Kd (TxtE [2]) is reported as 432 ± 17.2 µM.
For `N[C@@H](Cc1c[nH]c2ccc(F)cc12)C(=O)O` [Example 5-F-L-Trp, 5-F-L-Trp], the Kd (TB14 [1]) was 77.5 ± 5.74 µM, the “Nitration activity of TB14 toward the substrate (in words)” value (TB14 [3]) was “good activity; also recorded: comparable to Trp” and the “Nitration activity of TxtE toward the substrate (in words)” value (TxtE [4]) was “good activity; also recorded: best substrate of TxtE”. For the same molecule, the Kd (TxtE [2]; [6]) was 84.2 ± 4.37 µM.
`N[C@@H](Cc1c[nH]c2ccc(O)cc12)C(=O)O` [Example 5-OH-L-Trp, 5-OH-L-Trp] showed a Kd (TB14 [5]) of 453 ± 15.5 µM and a Kd (TxtE [2]) of 341 ± 26.4 µM.
With `O=C(O)c1c[nH]c2ccccc12` [Indole-3-carboxylic acid] the Kd (TxtE [2]) was > 9000 µM.
For `O=C(O)C(O)Cc1c[nH]c2ccccc12` (stereo not shown) [Indole-3-lactic acid], the Kd (TxtE [2]) was > 7000 µM.
For `O=C(O)C(=O)Cc1c[nH]c2ccccc12` [Indole-3-pyruvic acid], the Kd (TB14 [1]) was 478 ± 31.6 µM and the Kd (TxtE [2]; [6]) was 386 ± 42.5 µM.
`N[C@@H](Cc1c[nH]c2ccccc12)C(=O)O` [L-Trp, L-tryptophan] was tested, and the Kd (TB14 [5]) was 17.4 ± 0.95 µM and the Kd (TxtE [2]; [6]) was 24.8 ± 1.11 µM.
`N[C@H](CO)Cc1c[nH]c2ccccc12` [L-tryptophanol] showed a Kd (TB14 [5]) of 280 ± 43.2 µM and a Kd (TxtE [2]) of 221 ± 32.4 µM.
`NCCc1c[nH]c2ccc(O)cc12` [Serotonin] showed a Kd (TB14 [1]) of 310 ± 38.5 µM and a Kd (TxtE [2]; [6]) of 322 ± 31.4 µM.
`N[C@@H](Cc1c[nH]c2ccccc12)C(=O)O` [Trp] was tested, and the “Nitration activity of TB14 toward the substrate (in words)” value (TB14 [3]) was “nitrated” and the “Nitration activity of TxtE toward the substrate (in words)” value (TxtE [4]) was “nitrated”.
`NCCc1c[nH]c2ccccc12` [Tryptamine] was tested, and the Kd (TB14 [1]) was 59.8 ± 7.88 µM and the Kd (TxtE [2]; [6]) was 68.4 ± 6.19 µM.
With `c1ccc2[nH]ccc2c1` [indole] the “Interaction with TB14 in spectroscopic analysis (in words)” value (TB14 [1]) was “no detectable level of interaction” and the “Interaction with TxtE in spectroscopic analysis (in words)” value (TxtE [2]) was “no detectable level of interaction”.

From patent US11078467B2 (University of Florida Research Foundation, Incorporated, priority 2016, dated 2021)
